# Key:
# Format in all cases: functional
# [1] = organism: Rattus norvegicus; assay: Dose that causes 50% inhibition in the expected wheal size when given perorally; settings: po, read-out: ID50 (the source's name)
# [2] = system: Rattus norvegicus; assay: % inhibition of antiallergic activity in the rat passive cutaneous anaphylaxis (PCA) test after giving intraperitoneal dose of 16 mg/kg; settings: ip
# [3] = system: Rattus norvegicus; assay: % inhibition of antiallergic activity in the rat passive cutaneous anaphylaxis (PCA) test after giving peroral dose of 32 mg/kg; settings: route oral
# [4] = system: Rattus norvegicus; assay: % inhibition of antiallergic activity in the rat passive cutaneous anaphylaxis (PCA) test after giving intraperitoneal dose of 16 mg/kg; Not significant; settings: ip
# [5] = system: Rattus norvegicus; assay: % inhibition of antiallergic activity in the rat passive cutaneous anaphylaxis (PCA) test after giving intraperitoneal dose of 8 mg/kg; settings: ip
SMILES,ED50 [1] [mg/kg],inhibition in vivo at 16 mg/kg [2] [%],inhibition in vivo at 32 mg/kg [3] [%],inhibition in vivo at 16 mg/kg [4] [%],inhibition in vivo at 8 mg/kg [5] [%]
CC(C)c1ccc2nc3ccc(C(=O)O)cc3c(=O)n2c1,0.026,81,92,,
Cc1ccc2nc3ccc(C(=O)O)cc3c(=O)n2c1,7.11,69,81,,
O=C(O)c1ccc2nc3ccccc3c(=O)n2c1,,,,17,
CC(=O)c1ccc2nc3ccc(C(=O)O)cc3c(=O)n2c1,,44,,,
O=C(O)c1cc(=O)c2c(OCC(O)COc3cccc4oc(C(=O)O)cc(=O)c34)cccc2o1 [CROMOLYN SODIUM],,,18,,46
Cc1ccc2nc3ccc(C(=O)O)cn3c(=O)c2c1,3.53,58,83,,
CO/N=C(\C)c1ccc2nc3ccc(C(=O)O)cc3c(=O)n2c1,,36,,,
CC(C)c1ccc2nc3ccc(C(=O)O)cn3c(=O)c2c1,0.45,76,87,,
O=C(O)c1ccc2nc3ccccn3c(=O)c2c1 [DOQUALAST],,,,16,

# Reference: ChEMBL document CHEMBL1121532, “Pyrido[2,1-b]quinazolinecarboxylic acids as orally active antiallergy agents” (1980)
